In patent US11629143B2, “HipK4 inhibitors and uses thereof” (Vibliome Therapeutics, LLC, priority 2020, dated 2023) one finds inhibition data, which are given here for 9 compounds.

As usually defined, the inhibition is the relative decrease from the control value, in per cent.

Holding throughout (assay): Kinase panel (mobility shift)
Common to all, as to format: biochemical

One assay has as its target SRC (Homo sapiens, UniProt P12931). The procedure, abridged: (§1)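 Compound at 5 um + kinase + fluor-labeled substrate, standardized mix; rxn stopped; electrophoretic separation of product/substrate on chip; activity = product vs substrate peak fluorescence. Bins A ≥95%, B 90-94%, C 80-89%.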
Another assay concerns the target T1, EPH-A8 (Homo sapiens, UniProt P29322).
T1 sequence (P29322 28-1005): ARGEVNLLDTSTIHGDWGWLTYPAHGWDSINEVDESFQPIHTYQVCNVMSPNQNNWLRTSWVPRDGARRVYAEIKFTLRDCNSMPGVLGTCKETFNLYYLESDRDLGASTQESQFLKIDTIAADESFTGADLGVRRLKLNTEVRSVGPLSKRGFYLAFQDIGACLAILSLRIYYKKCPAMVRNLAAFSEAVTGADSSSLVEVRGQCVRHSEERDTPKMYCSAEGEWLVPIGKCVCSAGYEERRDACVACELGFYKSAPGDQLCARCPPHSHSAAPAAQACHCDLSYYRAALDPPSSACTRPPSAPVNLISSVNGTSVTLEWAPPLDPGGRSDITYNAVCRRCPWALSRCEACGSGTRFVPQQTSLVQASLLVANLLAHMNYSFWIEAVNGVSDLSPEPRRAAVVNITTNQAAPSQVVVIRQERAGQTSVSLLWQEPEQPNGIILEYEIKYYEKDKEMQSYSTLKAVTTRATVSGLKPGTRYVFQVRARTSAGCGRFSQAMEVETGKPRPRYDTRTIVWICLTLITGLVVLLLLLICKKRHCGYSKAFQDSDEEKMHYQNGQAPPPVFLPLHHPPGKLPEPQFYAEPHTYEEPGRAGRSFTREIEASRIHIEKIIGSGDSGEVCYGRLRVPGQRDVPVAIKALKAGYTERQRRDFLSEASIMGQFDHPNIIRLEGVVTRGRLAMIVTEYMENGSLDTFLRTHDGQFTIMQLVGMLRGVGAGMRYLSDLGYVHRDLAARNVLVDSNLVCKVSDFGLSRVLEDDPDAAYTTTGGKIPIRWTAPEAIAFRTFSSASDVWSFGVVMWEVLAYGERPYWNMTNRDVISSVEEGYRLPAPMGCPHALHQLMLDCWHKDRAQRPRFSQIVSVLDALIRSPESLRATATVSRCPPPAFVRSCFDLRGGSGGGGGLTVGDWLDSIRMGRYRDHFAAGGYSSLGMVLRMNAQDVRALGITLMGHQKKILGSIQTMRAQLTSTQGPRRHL
Put shortly: as §1

A further assay has as its target T2, EPH-B4 (Homo sapiens, UniProt P54760).
T2 sequence (P54760 16-987): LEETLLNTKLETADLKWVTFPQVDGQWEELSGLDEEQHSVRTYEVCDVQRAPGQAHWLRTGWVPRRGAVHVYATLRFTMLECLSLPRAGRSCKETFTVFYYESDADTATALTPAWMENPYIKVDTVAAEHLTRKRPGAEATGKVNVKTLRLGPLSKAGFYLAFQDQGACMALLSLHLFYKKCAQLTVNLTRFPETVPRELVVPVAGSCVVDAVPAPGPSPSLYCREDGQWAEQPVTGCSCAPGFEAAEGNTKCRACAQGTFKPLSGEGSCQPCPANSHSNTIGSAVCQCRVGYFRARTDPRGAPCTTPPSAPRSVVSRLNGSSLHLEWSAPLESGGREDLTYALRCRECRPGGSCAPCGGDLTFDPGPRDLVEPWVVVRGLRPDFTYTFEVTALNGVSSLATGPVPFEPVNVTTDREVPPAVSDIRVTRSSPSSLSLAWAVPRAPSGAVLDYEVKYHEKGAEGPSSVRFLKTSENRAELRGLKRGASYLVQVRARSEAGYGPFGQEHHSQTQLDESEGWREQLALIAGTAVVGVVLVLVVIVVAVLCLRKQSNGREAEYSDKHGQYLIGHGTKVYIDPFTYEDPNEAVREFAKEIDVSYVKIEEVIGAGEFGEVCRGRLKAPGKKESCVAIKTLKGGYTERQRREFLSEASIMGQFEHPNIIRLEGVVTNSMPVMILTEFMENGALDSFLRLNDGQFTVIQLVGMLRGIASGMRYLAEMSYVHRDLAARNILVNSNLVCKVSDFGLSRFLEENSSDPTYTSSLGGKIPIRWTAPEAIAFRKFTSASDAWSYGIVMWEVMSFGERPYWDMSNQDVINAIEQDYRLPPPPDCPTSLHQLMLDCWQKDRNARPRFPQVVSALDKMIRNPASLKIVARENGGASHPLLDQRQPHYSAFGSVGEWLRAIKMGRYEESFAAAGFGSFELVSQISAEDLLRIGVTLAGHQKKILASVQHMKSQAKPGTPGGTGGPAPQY
The procedure, abridged:
as §1

Sequence of SRC (P12931 whole entry, species assumed): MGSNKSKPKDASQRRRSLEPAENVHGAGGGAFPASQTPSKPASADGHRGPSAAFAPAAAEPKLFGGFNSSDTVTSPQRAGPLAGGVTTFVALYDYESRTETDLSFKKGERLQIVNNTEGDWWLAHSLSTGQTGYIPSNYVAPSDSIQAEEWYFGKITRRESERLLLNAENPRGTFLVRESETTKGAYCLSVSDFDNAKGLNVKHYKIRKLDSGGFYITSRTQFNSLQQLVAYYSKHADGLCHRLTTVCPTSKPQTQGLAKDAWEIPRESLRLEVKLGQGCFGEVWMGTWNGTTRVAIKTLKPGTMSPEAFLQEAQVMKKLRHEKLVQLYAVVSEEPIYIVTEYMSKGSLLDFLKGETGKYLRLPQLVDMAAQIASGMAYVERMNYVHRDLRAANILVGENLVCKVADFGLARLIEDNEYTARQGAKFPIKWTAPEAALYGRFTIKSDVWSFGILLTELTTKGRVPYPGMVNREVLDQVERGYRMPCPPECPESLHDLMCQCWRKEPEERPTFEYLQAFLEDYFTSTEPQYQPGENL

As for `CNC(=O)c1cc(Oc2ccc(NC(=O)c3nc(OCC(F)(F)F)oc3-c3ccc(F)cc3)cc2F)ccn1` [Compound 38], the inhibition at 5 µM at SRC, on EPH-A8 and on EPH-B4 was 50 to 79% throughout.
`CNC(=O)c1cc(Oc2ccc(NC(=O)c3nc(OC4CC4)oc3-c3ccc(F)cc3)cc2F)ccn1` [Compound 32]: the inhibition at 5 µM at SRC lay within 50 to 79%; at EPH-A8 it was 80 to 89%; at EPH-B4, 50 to 79%.
As to `CSc1nc(C(=O)Nc2ccc(Oc3cc4cnn(C)c4cc3Br)c(F)c2)c(-c2ccc(F)cc2)o1` [Compound 2], the inhibition at 5 µM on SRC is less than 50%; at EPH-A8, 50 to 79%; on EPH-B4 it was less than 50%.
For `[2H]C([2H])([2H])NC(=O)c1cc(Oc2ccc(NC(=O)c3nc(SC)oc3-c3ccc(F)s3)cc2F)ccn1` [Compound 35], the inhibition at 5 µM at SRC, at EPH-A8 and on EPH-B4 was less than 50% throughout.
As for `CNC(=O)c1cc(Oc2ccc(NC(=O)c3nc(OC)oc3-c3ccc(F)c(F)c3)cc2F)ccn1` [Compound 24], the inhibition at 5 µM on SRC is less than 50%; at EPH-A8, 50 to 79%; at EPH-B4, less than 50%.
Regarding `CNC(=O)c1ccc(Oc2ccc(NC(=O)c3nc(Cl)oc3-c3ccc(F)cc3)c(F)c2)cn1` [Compound 36], the inhibition at 5 µM on SRC, at EPH-A8 and at EPH-B4 was less than 50% in each case.
Regarding `CNC(=O)c1cc(Oc2ccc(NC(=O)c3nc(SC)oc3-c3ccc(F)cc3F)cc2)ccn1` [Compound 6], the inhibition at 5 µM was 80 to 89% at SRC, 80 to 89% at EPH-A8 and less than 50% on EPH-B4.
Regarding `CNC(=O)c1cc(Oc2ccc(NC(=O)c3nc(SC)oc3-c3ccc(Cl)s3)cc2)ccn1` [Compound 5], the inhibition at 5 µM was less than 50% on SRC, 50 to 79% on EPH-A8 and less than 50% at EPH-B4.
For the compound `CNC(=O)c1cc(Oc2ccc(NC(=O)c3nc(NC)oc3-c3ccc(F)cc3)cc2F)ccn1` [Compound 14], the inhibition at 5 µM at SRC was less than 50%; at EPH-A8, 50 to 79%; on EPH-B4, 50 to 79%.
